# Source: patent US20130023645A1 (priority 2006, published 2013)
# Where “and” joins values, the source holds several entries; their conditions need not be identical. Identical values can stand only once.
# Target: T1, neuronal-type nicotinic receptors (Bos taurus, UniProt Q07263+Q8SPU6)
# T1 construct: monolayer cultures of bovine adrenal chromaffin cells; endogenous in cells; host or cells: bovine adrenal chromaffin cells (primary monolayer cultures)
# Format: cell-based, bovine
# T1 sequence (Q07263 22-495): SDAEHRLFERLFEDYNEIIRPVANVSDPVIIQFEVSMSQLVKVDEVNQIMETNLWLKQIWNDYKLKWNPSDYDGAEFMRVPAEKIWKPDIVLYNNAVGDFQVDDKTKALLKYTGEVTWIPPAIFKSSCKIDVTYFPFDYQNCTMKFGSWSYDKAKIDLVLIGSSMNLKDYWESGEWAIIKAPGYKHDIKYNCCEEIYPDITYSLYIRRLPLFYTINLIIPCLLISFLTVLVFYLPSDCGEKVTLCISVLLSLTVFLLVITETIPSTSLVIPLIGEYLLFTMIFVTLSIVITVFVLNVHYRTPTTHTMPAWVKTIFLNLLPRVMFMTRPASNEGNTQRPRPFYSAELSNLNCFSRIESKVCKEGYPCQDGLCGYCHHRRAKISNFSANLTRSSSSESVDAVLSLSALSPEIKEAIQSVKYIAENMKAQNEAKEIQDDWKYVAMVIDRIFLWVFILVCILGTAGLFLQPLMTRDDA
# T1 sequence (Q8SPU6 20-496): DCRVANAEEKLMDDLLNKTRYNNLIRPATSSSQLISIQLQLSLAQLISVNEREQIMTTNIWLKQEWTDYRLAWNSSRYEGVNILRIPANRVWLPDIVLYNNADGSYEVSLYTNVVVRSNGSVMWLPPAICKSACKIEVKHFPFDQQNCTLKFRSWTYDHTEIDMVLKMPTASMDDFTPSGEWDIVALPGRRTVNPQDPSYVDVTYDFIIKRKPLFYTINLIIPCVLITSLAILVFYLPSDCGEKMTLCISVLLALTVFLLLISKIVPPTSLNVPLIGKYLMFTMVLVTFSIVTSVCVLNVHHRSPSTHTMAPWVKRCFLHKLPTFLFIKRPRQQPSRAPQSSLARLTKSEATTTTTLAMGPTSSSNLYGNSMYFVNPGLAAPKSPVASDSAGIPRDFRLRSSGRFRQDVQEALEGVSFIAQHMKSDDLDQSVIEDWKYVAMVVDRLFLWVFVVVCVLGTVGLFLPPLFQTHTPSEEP
smiles,measurement,value
"CN1CCCC1c1cccnc1 (centres unmarked) [NICOTINE, nicotine, reference compound]","Adrenaline Release, mean",4.46%
same,"Adrenaline Release, single determinations (1st-4th)",4.31% and 4.52% and 4.48%
same,"Noradrenaline Release, mean",6.85%
same,"Noradrenaline Release, single determinations (1st-4th)",6.62% and 6.89% and 6.99%
same,"noradrenaline released, basal release (0.72%) subtracted",6.13%
